We go through three molecules from ChEMBL document CHEMBL1208667, “Permanent positive charge strongly influences DNA/RNA binding and antiproliferative activity of urea-phenanthridinium conjugates” (Eur J Med Chem, 2010).

Common to all, as to format: functional, cell-based
The test system of test [1] is Caco-2. Nature of the test: Cytotoxicity against human Caco-2 cells at 100 uM after 72 hrs by MTT assay.
Test [2] deals with Caco-2. The test is described as follows: Cytotoxicity against human Caco-2 cells at 0.1 to 100 uM after 72 hrs by MTT assay. For orientation: Tetrazolium dyes change colour on reduction, which living cells bring about.
For the next test, the system named is HeLa. The test is described as follows: Cytotoxicity against human HeLa cells at 0.1 to 100 uM after 72 hrs by MTT assay.
The next test deals with MIA PaCa-2. Nature of the test: Cytotoxicity against human MIAPaCa2 cells at 0.1 to 100 uM after 72 hrs by MTT assay.
The next test has as its system HT-29. The test is described as follows: Cytotoxicity against human HT-29 cells at 0.1 to 100 uM after 72 hrs by MTT assay.
The next test has as its system HEp-2. The test is described as follows: Cytotoxicity against human Hep2 cells at 0.1 to 100 uM after 72 hrs by MTT assay.

Active and inactive are the calls of the source. The rule behind the calls is not given here.

For `Cc1nc2ccccc2c2ccc(NC(=O)NCCNC(=O)Nc3ccc4c(c3)c(C)nc3ccccc34)cc12`, the result in the test with Caco-2 [1] was inactive.

Regarding `Cc1nc2ccccc2c2ccc(NC(=O)NCCCCCCCCCNC(=O)Nc3ccc4c(c3)c(C)nc3ccccc34)cc12`, the outcome in the test on Caco-2 [2], in the test with HeLa, with MIA PaCa-2, with HT-29, in the test with Caco-2 [1] and with HEp-2 was inactive.

Consider `Cc1nc2ccccc2c2ccc(NC(=O)NCCCCCCNC(=O)Nc3ccc4c(c3)c(C)nc3ccccc34)cc12`, for which, in the test on Caco-2 [1], the result was inactive.
